What all share (type): cell-based
The test system of experiment [1] is Salmonella serotype Typhimurium (ATCC 700408). Nature of the experiment: microbe, parasite or virus in culture. Particulars: for bacterial growth (OD600), stand-alone treatment / bacterial growth (OD600), combination: 17-20 h; for bacterial growth (OD600), combination: simultaneously; for MIC: Salmonella. As to the method: FIG. 1 presents: Salmonella serotype Typhimurium (ATCC 700408), a Multi-Drug Resistant (MDR) strain of bacteria were cultured in the presence of either OMN6 or Kanamycin KAN. […] The bacteria were incubated for 17-20 hours and the growth of the bacteria was continuously monitored via spectrophotometry at 600 nm (OD600). As bacterial growth progresses, OD600 values rise, and where the growth is inhibited OD600 values remain constant.
(§1) The bacteria were incubated for 17-20 hours and the growth of the bacteria was continuously monitored via spectrophotometry at 600 nm (OD600). As bacterial growth progresses, OD600 values rise, and where the growth is inhibited OD600 values remain constant.
FIG. 3A presents: Salmonella serotype Typhimurium (ATCC 700408), a Multi-Drug Resistant (MDR) strain of bacteria were cultured in the presence of OMN6 or AMP.

The test system of experiment [2] is Pseudomonas aeruginosa (ATCC BAA-2110). Nature of the experiment: Growth of MDR bacteria monitored by OD600 under peptide, antibiotic or co-treatment. Particulars: FIG. 3B; for bacterial growth (OD600), stand-alone treatment / bacterial growth (OD600), combination: 17-20 h; for bacterial growth (OD600), combination: OMN6 32 μg/ml together with AMP 64 μg/ml, simultaneously. As to the method:
FIG. 3B presents: Pseudomonas aeruginosa (ATCC BAA-2110), a Multi-Drug Resistant (MDR) strain of bacteria were cultured in the presence of either OMN6 or AMP. The bacteria were introduced into solutions of OMN6 (32 μg/ml) and AMP (64 μg/ml) at concentrations that were previously shown to be non-effective when added alone. […] The bacteria were then cultured in the presence of a co-treatment with a combination of OMN6 and AMP, and administered simultaneously, in the same non-effective concentrations described above.
as §1

Experiment [3] has the same test system. The description is as above. Particulars: AMP alone 128 μg/ml; 17-20 h; FIG. 3B.
In experiment [4] the test system is Salmonella serotype Typhimurium (ATCC 700408). Put plainly: microbe, parasite or virus in culture. Particulars: for MIC: Salmonella; for bacterial growth (OD600), combination: simultaneously; for bacterial growth (OD600), combination / bacterial growth (OD600), stand-alone treatment: 17-20 h.
[5] abbreviates: OMN6 32 μg/ml together with AMP 128 μg/ml, FIG. 3A.

Entries after “also recorded” stand apart in the source; their conditions may differ. Like-named read-outs stand apart in the source and are kept apart here. Ends that are not written are not given here. Peptide text beside a SMILES is read from it.

Consider `CC1(C)S[C@@H]2[C@H](NC(=O)[C@H](N)c3ccccc3)C(=O)N2[C@H]1C(=O)O` [AMP, Ampicillin, reference compound], for which the “bacterial growth (OD600), stand-alone treatment” value in experiment [1] (AMP alone 128 μg/ml, FIG. 3A) was “did not inhibit bacterial growth and did not lead to bacterial death; also recorded: did not inhibit bacterial growth effectively”; in experiment [2] (AMP alone 64 μg/ml), “did not inhibit bacterial growth and did not lead to bacterial death”; in experiment [3], “did not inhibit bacterial growth effectively”. Further, the “bacterial growth (OD600), combination” value in experiment [1] (setting [5]) is “complete and long-lasting antimicrobial effect; also recorded: powerful antimicrobial effect”; in experiment [2], “complete and long-lasting antimicrobial effect; also recorded: powerful antimicrobial effect”. Moreover, the MIC in experiment [1] (read-out: Minimal Inhibitory Concentration (MIC) of co-treatment, AMP part) was 128 µg/mL; in experiment [2] (Pseudomonas aeruginosa, ATCCBAA2110, in co-treatment with OMN6 32 μg/ml, read-out: Minimal Inhibitory Concentration (MIC) of co-treatment, AMP part), 64 µg/mL.
Take `C[C@@H](O)[C@H]1C(=O)N2C(C(=O)O)=C(SCCN=CN)C[C@H]12` [IPM, Imipenem, reference compound]: the MIC in experiment [4] (read-out: Minimal Inhibitory Concentration (MIC) of co-treatment, IPM part) came to 32 µg/mL.
For `NC[C@H]1O[C@H](O[C@H]2[C@H](O)[C@@H](O[C@H]3O[C@H](CO)[C@@H](O)[C@H](N)[C@H]3O)[C@H](N)C[C@@H]2N)[C@H](O)[C@@H](O)[C@@H]1O` [KAN, Kanamycin, reference compound], the MIC in experiment [1] (in co-treatment with OMN6 217 μg/ml, FIG. 1, read-out: Minimal Inhibitory Concentration (MIC) of co-treatment, KAN part) is 3.75 µg/mL.
For the compound `CC[C@H](C)[C@H](NC(=O)CNC(=O)[C@H](CCC(=O)O)NC(=O)[C@H](CO)NC(=O)[C@@H](NC(=O)[C@H](CCCNC(=N)N)NC(=O)[C@H](CCCCN)NC(=O)[C@H](CCCCN)NC(=O)[C@H](C)NC(=O)[C@H](CO)NC(=O)[C@H](CC(N)=O)NC(=O)[C@H](CCC(=O)O)NC(=O)[C@H](CC(C)C)NC(=O)[C@H](CCCCN)NC(=O)[C@H](CCCCN)NC(=O)[C@H](C)NC(=O)[C@@H](NC(=O)[C@H](CCCCN)NC(=O)[C@H](CO)NC(=O)[C@H](CC(C)C)NC(=O)[C@H](Cc1c[nH]c2ccccc12)NC(=O)[C@H](CO)NC(=O)[C@H](CS)NC(=O)[C@@H](N)CCSC)[C@@H](C)O)[C@@H](C)CC)C(=O)N[C@@H](C)C(=O)N[C@H](C(=O)N[C@@H](C)C(=O)N[C@H](C(=O)N[C@@H](CCC(N)=O)C(=O)NCC(=O)NCC(=O)N1CCC[C@H]1C(=O)N[C@@H](CCCNC(=N)N)C(=O)N[C@@H](CS)C(=O)O)[C@@H](C)CC)[C@@H](C)CC` [OMN11] (H-MCSWLSKTAKKLENSAKKRISEGIAIAIQGGPRC-OH; N-terminus and C-terminus assumed), in experiment [4] (OMN11 304 μg/ml together with IPM 32 μg/ml, FIG. 2), the “bacterial growth (OD600), combination” value was “complete and long-lasting antimicrobial effect; also recorded: powerful antimicrobial effect”. Moreover, the “bacterial growth (OD600), stand-alone treatment” value in experiment [4] (OMN11 alone 304 μg/ml, FIG. 2) is “did not inhibit bacterial growth and did not lead to bacterial death; also recorded: did not inhibit bacterial growth effectively”.
In the case of `CN(C)[C@@H]1C(O)=C(C(N)=O)C(=O)[C@@]2(O)C(O)=C3C(=O)c4c(O)cccc4[C@@](C)(O)[C@H]3C[C@@H]12` [TET, Tetracycline, reference compound], the MIC in experiment [4] (in co-treatment with OMN6 32 μg/ml, FIG. 4, read-out: Minimal Inhibitory Concentration (MIC) of co-treatment, TET part) is 162 µg/mL.
In the case of “OMN6: modified H. cecropia Cecropin A peptide, MCKWKLFKKIEKVGQNIRDGIIKAGPAVAVVGQATQIAKC (ends and bridges not checked; cysteine pairing not given here)”, the “bacterial growth (OD600), combination” value in experiment [1] (setting [5]) is “complete and long-lasting antimicrobial effect; also recorded: powerful antimicrobial effect”; in experiment [1] (OMN6 217 μg/ml together with KAN 3.75 μg/ml, FIG. 1) it was “complete and long-lasting antimicrobial effect; also recorded: powerful antimicrobial effect”; in experiment [2] it was “complete and long-lasting antimicrobial effect; also recorded: powerful antimicrobial effect”; in experiment [4] (OMN6 32 μg/ml together with TET 16 μg/ml, FIG. 4) it was “complete and long-lasting antimicrobial effect; also recorded: powerful antimicrobial effect”. Further, the “bacterial growth (OD600), stand-alone treatment” value in experiment [1] (OMN6 alone 32 μg/ml, FIG. 3A) was “did not inhibit bacterial growth and did not lead to bacterial death; also recorded: did not inhibit bacterial growth effectively”; in experiment [1] (OMN6 alone 32 μg/ml, FIG. 4), “did not inhibit bacterial growth and did not lead to bacterial death; also recorded: did not inhibit bacterial growth effectively”; in experiment [2] (OMN6 alone 32 μg/ml), “did not inhibit bacterial growth and did not lead to bacterial death; also recorded: did not inhibit bacterial growth effectively”; in experiment [4] (OMN6 alone 217 μg/ml, FIG. 1), “did not inhibit bacterial growth and did not lead to bacterial death; also recorded: did not inhibit bacterial growth effectively”. The “Minimal Inhibitory Concentration (MIC) of co-treatment, OMN6 part” value in experiment [1] (in co-treatment with AMP 128 μg/ml, FIG. 3A) is 32 µg/mL; in experiment [1] (in co-treatment with KAN 3.75 μg/ml, FIG. 1), 217 µg/mL; in experiment [2] (in co-treatment with AMP 64 μg/ml) it was 32 µg/mL.

The record behind these values is patent US10745452B2, “Combination of antimicrobial peptides and antibiotic drugs for treating diseases” (OMNIX MEDICAL LTD., priority 2016, dated 2020).
